Test results taken from PMC6811539, “Minute-scale persistence of a GPCR conformation state triggered by non-cognate G protein interactions primes signaling” (Nature Communications, 2019).

System: β2-AR-Sp SPASM sensor
Assay: ΔFRET assay of β2-AR activation on native membranes with β2-AR-Sp SPASM sensor
Assay type: biochemical, human
Set-up: mean ΔFRET: unit of the concentration uncertain
Conditions: for mean ΔFRET: SuppFig 3c
Procedure: Membranes were prepared following a published protocol[56] from HEK293T cells transiently transfected with the appropriate DNA (β2-AR-mCherry, β2-mCerulean, V1AR-mCherry, β2-AR-ICL3 or β2-AR-Sp). Cells were collected in culture medium and washed twice with PBS by centrifugation (300 × g, 3 min, ambient temperature). Cell pellets were incubated with an ice-cold hypotonic buffer (solution A: 10 mM HEPES, 1 mM EGTA, pH 7.2) for 30 min on ice. Cells in solution A were lysed gently (30 strokes) in a chilled Dounce homogenizer in the presence of 1.5 μg/mL aprotinin, 1.5 μg/mL leupeptin, 5 μg/mL phenylmethylsulfonyl fluoride (PMSF) and 1 mM dithiothreitol (DTT). Nuclei and intact cells were eliminated by centrifugation at 1000 × g, 5 min, 4 °C. All subsequent centrifugation steps were performed in a TLA100.4 rotor at 135,000 × g, 30 min, 4 °C. Native membranes were washed with 20 mM HEPES, 100 mM NaCl, 5 mM MgCl2, 100 μM GDP in the presence of 1.5 μg/mL aprotinin, 1.5 μg/mL leupeptin, 5 μg/mL PMSF, and 1 mM DTT, and were stored in the same buffer with 12% sucrose. For experiments to monitor Gα peptide–GPCR interactions using ΔFRET response, the native β2-AR-Sp sensor-containing membranes were washed in buffer containing 20 mM HEPES, 100 mM NaCl, 45 mM KCl, 5 mM MgCl2, and 100 μM GDP, and were stored in sucrose (12% w/v)-supplemented wash buffer.
Native membranes were collected from HEK293T cells expressing either the β2-AR-Sp SPASM sensor or the β2-AR-ICL3 conformational sensor. Frozen membranes were thawed and handled on ice. The membranes were resuspended by sonication to a concentration of 100 nM sensor (1 × 10^6 mCer cps) in 20 mM HEPES, 100 mM NaCl, 45 mM KCl, 5 mM MgCl2, pH 7.4 (ΔFRET buffer minus Ca^2+) in the presence of 1.5 μg/mL aprotinin, 1.5 μg/mL leupeptin, and 5 μg/mL PMSF. Indicated peptides were added to 30 μM (50 μM for PC-Qp) in a sample volume of 1 mL. The sample was aliquoted as 90 μl into ten replicate tubes—five labeled ISO and five buffer. Agonist solution (ISO) containing 1 mM Isoproterenol and 1 mM ascorbic acid was prepared in ΔFRET buffer minus Ca^2+. […]

DTENIRFVFAAVKDTILQLNLKE(Anp)NLV [PC-Qp, photocleavable Qp, Y356 replaced by Anp]
mean ΔFRET (PCQp (30 µM)): 0.018 | mean ΔFRET (PCQp (50 µM)): 0.024 | duration of sustained FRET response after peptide removal (β2-AR-Sp sensor, ISO 100 μM, depletion (bioQp) or photocleavage (PC-Qp)): 120 s
